Measured values published in patent US10526383B2, “Ghrelin splice variant for treating neuronal damage, neurodegenerative disease, parkinsons disease, alzheimers disease, and/or depression” (priority 2013, dated 2020).
“Also recorded” adds a separate entry of the source. Where a SMILES comes first, the peptide text is derived from it. Where no end group is shown, it is not given here. The star is where a group is joined. Octanoyl = CCCCCCCC(=O)*

Key:
[1] = system: growth hormone; assay: GH release after subcutaneous bolus injection (growth hormone ELISA); type: in vivo, mice; settings: 20 μg subcutaneous bolus; 10 minutes after administration
Method: Acylated ghrelin splice variants (20 μg) or the Vehicle (1.6% mannitol) were administered by a subcutaneous bolus injection (Corresponding to 0.3 μmol/kg) to 5 mice each. Blood was sampled 10 and 20 min after injection. Serum samples were stored at −70° C. and analyzed by the RAT/MOUSE GROWTH HORMONE ELISA KIT 96-Well Plate (Cat. EZRMGH-45K) (Millipore Corporation, Billerica, Mass., USA). Results: The serum […] growth hormone concentration 10 minutes after subcutaneous administration of acylated ghrelin splice variant or the Vehicle was 2-14-fold higher in the ghrelin splice variant group in comparison to the vehicle group.

[2] = system: SNpc DA neurons; assay: mEPSC recordings in GHSR1a knockout mice and their WT littermates; type: cell-based; settings: 1 μM, in presence of TTX and bicuculline
[3] = system: C57Bl/6 mice primary cell culture; assay: Trypan blue cell viability assay, protection against H2O2-induced cell death; type: cell-based; settings: for protective action against the damages produced by H2O2 in terms of cell viability: 50 μM H2O2 plus 1 μM peptide, compared to negative control (H2O2)
Method: The protective effects of ghrelin splice variant against induced cell death, cell viability, of C57Bl/6 mice primary cell culture, was analysed by trypan blue assay, an indirect method based on the dye exclusion of live cells with intact cell membrane.
Cells were treated with 50 μM H2O2 to induce cell damages and death. The neuroprotective effect of ghrelin splice variant was tested by treating the cells with either H2O2 plus 1 μM ghrelin splice variant, H2O2 plus 1 μM ghrelin or H2O2 plus both peptides. Controls samples were untreated cells.

[4] = system: SN DA neurons; assay: mEPSC and mIPSC recordings of SN DA neurons after treatment of WT mice; type: in vivo; settings: compared with saline control, n=6 cells
Method: Brain slices preparation: Brain slices (300 µm) containing the SN, will be cut on a vibratome from 4-6 week old males (n=10 per group). Briefly, animals will be anesthetized with Nembutal (80 mg/kg) and then decapitated. The brains will be rapidly removed and immersed in cold […] oxygenated bath solution (containing (mM): NaCl 150, KCl 2.5, CaCl2 2, MgCl2 2 Hepes 10, and glucose […] with NaOH). After being trimmed to contain only the SN, slices will be transferred to a recording chamber where they are constantly perfused with bath solution at 2 ml/min. DA neurons in the SN are identified by presence of a large Ih current (>100 pA) evoked by hyperpolarizing voltage steps from −50 to −120 mV for 2 s (22). This approach identifies dopaminergic cells with >90% accuracy. […] Electrophysiological data will be analyzed with Axograph 4.9 (Axon Instruments) and plotted with Igor Pro software (WaveMetrics, Lake Oswego, Oreg., USA). […] The pipette will be filled with a solution containing the following (mM): KMeSO, 145 (mEPSC) or KCL, 145 (mIPSC); MgCl2, 2; HEPES, 10; Mg-ATP, 2.; Nat-GTP, 0.3; and KOH to adjust pH to 7.3. mEPSC recordings will be achieved under the prescence of TTX and bicucullin, whereas mIPSC will be monitored under the presence of TTX, AP5 and CNQX. The frequency and amplitude of mEPSC and IPSC will be recorded as described previously. […] N=number of cells recorded.

[5] = system: MPTP-mice; assay: MPTP mouse model of Parkinson's disease; type: in vivo; settings: 10 nmol once-a-day, day -7 to day 10 after MPTP
Method: In the MPTP model, the bilateral dopaminergic neuronal death of the substantia nigra and dopamine depletion of the striatum is created by i.p. injection of MPTP. Experimental groups:
• Group 1: 10 Sham-mice treated with vehicle (10 ml/kg) once-a-day starting day-7 and continuing until the end of the study day 10 • Group 2: 10 MPTP-mice treated with vehicle (10 ml/kg) once-a-day starting day-7 and continuing until the end of the study day 10 • Group 3: 10 MPTP-mice treated with Ghrelin SplicVariant (10 nmol) once-a-day starting day-7 and continuing until the end of the study day 10 Ghrelin Splice Variant or vehicle was administered once-a-day immediately before the dark phase, and […] were removed overnight starting seven days prior to MPTP challenge and continued until end-point day 10 after MPTP. Striatal levels of dopamine (DA), […] (DOPAC) and homovanillic acid (HVA) are evaluated 10 days after the injection of MPTP with HPLC. In addition, the selective damage to dopaminergic neurons in the SNc is evaluated with tyrosine hydroxylase (TH) immunoreactivity. Food intake and body weight were monitored daily in all mice administered Ghrelin Splice Variant.

[6] = Pharmacokinetics after subcutaneous administration, plasma LC/MS/MS; type: in vivo, Sprague-Dawley rats; settings: Sprague-Dawley, rat; for half-life: across dose groups; for AUC / AUC(0-inf): SC; for AUC: high dose (10 mg/kg)
Method: Subcutaneous administration of ghrelin splice variants was performed at three dose levels of 0.5, 2.5 and 10 mg/kg corresponding to concentrations of 0.1, 0.5 and 2 mg/ml, respectively, and at a constant volume dosage of 5 ml/kg. Intravenous injection was performed at one dose level of 0.5 mg/kg corresponding to a concentration of 0.1 mg/ml and a constant volume dosage of 5 ml/kg as well. The study comprised 9 male and 9 female Sprague-Dawley™ (SD™) rats per dose level and route of administration.
Bleeding sampling design was confined to 9 bleeding time points for each dose level: pre-dosing, 5, 15, 30, 60 and 90 min, 3, 5 and 24 hrs, post-dosing. Each group was divided into 3 sub-groups, each being assigned 3 specific bleeding time points, in order to receive 3 individual samples/time point/group (total of 27 individual samples/group). […] Whole blood samples were kept on ice from the time of blood collection until the time of centrifugation. The obtained plasma samples were flash frozen in liquid nitrogen and kept on dry ice until removal to −70° C.
Concentrations of the Test Item in plasma were determined by LC/MS/MS (liquid chromatography/mass spectrometry/mass spectrometry). Pharmacokinetic analysis of Ghrelin Splice Variant was based on mean plasma concentration time profiles for each dose group as obtained by Non-compartmental Pharmacokinetic analysis, generated by the use of the computer software: “PK Solutions 2.0” (Summit Research Services, Colo., USA).

[7] = system: SNpc DA neurons; assay: Patch clamp (whole-cell current clamp) recordings of action potentials in brain slices, bath application; type: cell-based, mice; settings: 1 μM
Method: Brain slices preparation: Brain slices (300 µm) containing the SN, will be cut on a vibratome from 4-6 week old males (n=10 per group). Briefly, animals will be anesthetized with Nembutal (80 mg/kg) and then decapitated. The brains will be rapidly removed and immersed in cold […] oxygenated bath solution (containing (mM): NaCl 150, KCl 2.5, CaCl2 2, MgCl2 2 Hepes 10, and glucose […] with NaOH). After being trimmed to contain only the SN, slices will be transferred to a recording chamber where they are constantly perfused with bath solution at 2 ml/min. DA neurons in the SN are identified by presence of a large Ih current (>100 pA) evoked by hyperpolarizing voltage steps from −50 to −120 mV for 2 s (22). This approach identifies dopaminergic cells with >90% accuracy. In brain slices, whole-cell current clamp will be used to observe spontaneous action potentials. Slices will be maintained at 330 C and perfused continuously with ASCF (bubbled with 5% CO2 and 95% O2) containing (in mM): NaCl, 124; KCl, 3; CaCl2, 2; MgCl2, 2; NaH2PO4, 1.23; NaHCO3, 26; glucose, 10; pH 7.4 with NaOH. Ghrelin Splice Variant will be applied to the recording chamber via bath application.The pipette solution containes (mM): Gluconic Acid 140, CaCl2, MgCl2 2, EGTA 1, HEPES 10, Mg-ATP 4, and Na2-GTP 0.5, pH 7.3 with KOH. To further explore the mechanism of Ghrelin Splice Variant-mediated effect on action potentials in DA neurons, we will analyze the effect of Ghrelin Splice Variant on action potential frequency either in the presence of ionotropic glutamate receptor antagonists CNQX (10 µM) and APS (50 µM) in all solutions, or in the presence of bicuculine (30 µM; to block diminish GABA effects) in all solutions. Analysis: All data will be sampled at 3-10 kHz and […] at 1-3 kHz with an Apple Macintosh computer using Axograph 4.9 (Axon Instruments). Electrophysiological data will be analyzed with Axograph 4.9 (Axon Instruments) and plotted with Igor Pro software (WaveMetrics, Lake Oswego, Oreg., USA). To complement, the electron microscopic measurements of synapses, we will also analyze mEPSC and mIPSC of SN DA neurons. Mice (C57BL/J6; n=10) between the ages of 4-6 weeks of age will be injected with Ghrelin Splice Variant (30 μg in 0.3 ml) or vehicle ip at 09:00 hrs. Two hours later, animals will be sacrificed under neinbutal anesthesia and their brains collected as described above. For the recording of mEPSCs and IPSCs, SN DA cells will be patched with pipettes with a tip resistance of 4-6 MΩ and partially compensated by the amplifier. The pipette will be filled with a solution containing the following (mM): KMeSO, 145 (mEPSC) or KCL, 145 (mIPSC); MgCl2, 2; HEPES, 10; Mg-ATP, 2.; Nat-GTP, 0.3; and KOH to adjust pH to 7.3. mEPSC recordings will be achieved under the prescence of TTX and bicucullin, whereas mIPSC will be monitored under the presence of TTX, AP5 and CNQX. The frequency and amplitude of mEPSC and IPSC will be recorded as described previously. Differences in the frequency of mEPSCs and mIPSCs of DA cells from Ghrelin Splice Variant and saline treated animals will be compared using unpaired t-tests with the critical level set at α=0.05). […] N=number of cells recorded.

[8] = cited from earlier work
[9] = listed as Ghrelin splice variant

## CCCCCCCC(=O)OC[C@H](NC(=O)[C@H](CO)NC(=O)CN)C(=O)N[C@@H](Cc1ccccc1)C(=O)N[C@@H](CC(C)C)C(=O)N[C@@H](CO)C(=O)N1CCC[C@H]1C(=O)N[C@@H](CCC(=O)O)C(=O)N[C@@H](Cc1c[nH]cn1)C(=O)N[C@@H](CCC(N)=O)C(=O)N[C@@H](CCCNC(=N)N)C(=O)N[C@H](C(=O)N[C@@H](CCC(N)=O)C(=O)N[C@H](C(=O)N[C@@H](CCCNC(=N)N)C(=O)N1CCC[C@H]1C(=O)N1CCC[C@H]1C(=O)N[C@@H](Cc1c[nH]cn1)C(=O)N[C@@H](CCCCN)C(=O)N[C@@H](C)C(=O)N1CCC[C@H]1C(=O)N[C@@H](Cc1c[nH]cn1)C(=O)O)C(C)C)C(C)C [Ghrelin Splice Variant] (H-GSS(Octanoyl)FLSPEHQRVQVRPPHKAPH-OH)
[1]
  serum and brain growth hormone concentration in comparison to the vehicle group: 2-14 fold
[2]; GHSR1a knockout mice, n=9 cells
  mEPSC frequency: 27.3+/−2.8 per min
[2]; WT animals, n=31 cells
  mEPSC frequency: 98.1+/−24.7 per min
[3]; [9]
  protective action against the damages produced by H2O2 in terms of cell viability: effective protective action
[3]; listed as ghrelin splice variant
  protective action against the damages produced by H2O2 in terms of cell viability: statistically significant effective protective action; also recorded: greater than ghrelin treatment
[4]
  frequency of mEPSCs: 67.2 ± 3.1
  frequency of mIPSCs: 60.5 ± 8.9
[5]
  MPTP-induced nigrostriatal DA damage (loss of DA neurons): attenuates MPTP-induced nigrostriatal PA damage
  cumulative weight gain / recovery after MPTP treatment: managed to recover after the MPTP treatment
[6]; subcutaneous, female rats
  half-life: 10.7 to 28.9 min
[6]; subcutaneous, male rats
  half-life: 17.4 to 26.4 min
[6]; both sexes, subcutaneous, post-dosing, all dose groups
  Tmax: 5 min
[6]; female, females
  AUC: 818 ng·h/mL
[6]; female, low dose (0.5 mg/kg), females
  AUC(0-inf): 86.7 ng·h/mL
[6]; female, mid dose (2.5 mg/kg), females
  AUC(0-inf): 347 ng·h/mL
[6]; male, males
  AUC: 1320 ng·h/mL
[6]; male, low dose (0.5 mg/kg), males
  AUC(0-inf): 102 ng·h/mL
[6]; male, mid dose (2.5 mg/kg), males
  AUC(0-inf): 313 ng·h/mL
[7]
  action potential firing: increment in AP firing
  depolarization: about 10 mV
  duration of effect after washout: 20 min
[7]; [9]
  action potential firing: increment in action potential firing
  duration of effect after washout: at least 20 minutes

## OO [H2O2, reference compound]
[3]; 50 μM H2O2 alone
  cell survival: 50%

## Ghrelin: 28 amino acid peptide bearing an n-octanoyl side chain on the third serine (GSS(Octanoyl)FLSPEHQRVQQRKESKKPPAKLQPR; UniProt Q9UBU3 24-51, looked up) [reference compound]
[8]; infusion for 90 minutes, cancer cachexia patients
  increase of food intake: 30%
[8]; subcutaneous injection of 3.6 nmol/kg prior to a meal
  increase of energy intake: 27%
[3]
  protective action against the damages produced by H2O2 in terms of cell viability: statistically significant
[3]; listed as ghrelin
  protective action against the damages produced by H2O2 in terms of cell viability: statistically significant effective protective action
